Laboratory results: PMC12071940, “Shortened PGLYRP1 Peptides Regulate Antitumor Activity of Cytotoxic Lymphocytes via TREM-1 Receptor: From Biology to Bioinformatics” (International Journal of Molecular Sciences, 2025)
Ends that are not written are not given here.

Legend:
TREM-1 receptor [1] = experiment: Inhibition of cytotoxicity induced by the sum of N9 and N15 peptides; type: cell-based, human; conditions: PBMC with N9 + N15, 6 days; K562
Procedure: (§1) The combined effect of these peptides stimulated the activation of cytotoxic lymphocytes. […] In addition, the induction of the cytotoxic effect of lymphocytes is TREM-1-dependent.
(§2) For cytotoxicity tests, cells of the K562 line were cultured in 96-well plates (Luoyang Fudau Biotech Co, Luoyang, Henan, China) (6 × 10^4 per well) before the addition of lymphocytes (1.2 × 10^6 per well) and then incubated at 37 °C in an atmosphere with 5% CO2 for 3–20 h. Cytotoxicity was measured using a Cytotox 96 analysis kit (Promega, Madison, WI, USA) after 24 h of incubation in accordance with the manufacturer’s protocol. […] Polyclonal antibodies to Tag7 were obtained from ABclonal (ABclonal, Woburn, MA, USA). Monoclonal antibodies to TREM-1 were obtained from Thermo Fisher Scientific (Thermo Fisher Scientific, Waltham, MA, USA).

K562 cells = experiment: Cytotoxic activity of human PBMC incubated 6 days with Tag7 peptides (single or combined), tested on K562 cells; type: cell-based; conditions: single peptide, 10^−9 M, human PBMC 6 days, then K562; n = 5
Procedure: The synthesized peptides were incubated with isolated human PBMC for 6 days. Thereafter, the activated lymphocytes were added to MHC-negative tumor cells of the K562 line, and their cytotoxic effect on these cells was determined.
as §1
K562, RAW264.7 cells were cultivated in RPMI-1640 (Himedia Laboratories Private Limited, Maharashtra, India) with 2 mM L glutamine, 10% FCS (Invitrogen, Carlsbad, CA, USA), with 1% kanamycin (Thermo Fisher Scientific, Waltham, MA, USA). […] CD4+ (CD8+) T-lymphocytes were isolated from the PBMCs using the Dynabeads^TM Untouched^TM Human CD4 T Cells Kit, and NK cells were isolated from PBMC by Dynabeads^TM Untouched^TM Human NK Cells Kit according to the manufacturer’s protocol (Thermo Fisher Scientific, Waltham, MA, USA).
as §2

TREM-1 receptor [2] = experiment: Inhibition of cytotoxic activity of PBMC induced by peptide N3; type: cell-based, human; conditions: PBMC preincubated 1 h with peptide (10^−9 M), then N3 added; cytotoxicity after 6 days, K562
Procedure: The inhibitory and activating activities were investigated. To determine the inhibitory activity, PBMC were preincubated with the studied peptides for 1 h, then the activating peptide N3 was added, and the cytotoxic activity of lymphocytes was determined after 6 days.
as §2

tumor cells (K562) = test system: tumor cells (K562); set-up: method as in printed at the place; conditions: other TREM-1 ligands, 'just as it was shown'; no ref given; cited from earlier work
MHC-negative tumor cells = conditions: ref [24,27,42]; cited from earlier work
Text: The interaction of ligands with TREM-1 on the cell membrane leads to dimerization of the receptor, followed by activation of the metalloprotease MMP-9 [37], cleavage, and dissociation of the exodomain from the cell surface. sTREM-1 is considered a biomarker of infection and viral diseases. Further activation of the receptor develops in two ways. Triggering cascades of tyrosine kinases leads to activation of the NFkß factor, expression of pro-inflammatory cytokines, and development of inflammatory processes. In turn, the release of cytokines leads to the appearance of ...

Substance | inhibition of cytotoxicity of the sum of N9 and N15 (TREM-1 receptor [1]) | activation of cytotoxic lymphocytes (K562 cells) | inhibition of N3-stimulated cytotoxic activity (TREM-1 receptor [2]) | type of tumor cell death induced (tumor cells (K562)) | stimulation of cytokines and activation of cytotoxic lymphocytes (MHC-negative tumor cells)
LQVTDSGLYRCVIYHPP [LP17, reference compound] | inhibited | – | – | – | –
PASCQQQAR [N9] | – | do not activate cytotoxic lymphocytes | inhibited the development of cytotoxic activity stimulated by peptide N3 | – | –
Tag7: innate immunity protein PGLYRP1; recombinant Tag7 | – | – | – | induced apoptosis and necroptosis in tumor cells | not only stimulate the production of pro-inflammatory cytokines but also induce the activation of cytotoxic lymphocytes against MHC-negative tumor cells
RYVVVSHTAGSSCNT [N15] | – | do not activate cytotoxic lymphocytes | had no inhibitory effect on the induction of the TREM-1-dependent signal | – | –
RNVQHYHMKT [17.0] | inhibited | do not activate cytotoxic lymphocytes | inhibited the development of cytotoxic activity stimulated by peptide N3 | – | –
HMGB1: multifunctional protein, TREM-1 ligand | – | – | – | induced apoptosis and necroptosis in tumor cells | not only stimulate the production of pro-inflammatory cytokines but also induce the activation of cytotoxic lymphocytes against MHC-negative tumor cells
Hsp70: main heat shock protein, TREM-1 ligand | – | – | – | induced apoptosis and necroptosis in tumor cells | not only stimulate the production of pro-inflammatory cytokines but also induce the activation of cytotoxic lymphocytes against MHC-negative tumor cells
